Tests used:
[1] = test system: PBMC from HIV seropositive subjects; assay: Intracellular cAMP in PBMC from HIV seropositive subjects; type: cell-based, human
Experimental: The compound 2′,5′ dideoxyadenosine (ddAdo) inhibits adenylate cyclase, the enzyme responsible for the generation of cAMP, by competition for the “P”-binding site (Johnson, J Biochem (1990) 265:11595-11600). […] In one such experiment (FIG. 9A), the intracellular cAMP level decreased to normal levels within 4 hours and remained at this level when tested after 20 hours. The effect of ddAdo was compared with two other adenylate cyclase inhibitors which are naturally occurring adenosine phosphates. When used in equal concentrations, the three inhibitors gave similar reductions in intracellular CAMP levels. For example, when added in 10 ng/ml for 10 min, ddAdo decreased the CAMP levels from 5.3 pmol/10^6 PBMC to 3.6; 3′ AMP to 3.5; and 2′,3′deoxy-AMP reduced the level to 3.2 pmol/10^6 PBMC.
cAMP was determined using a commercial scintillation proximity RIA (Amersham, Arlington Heights, Ill.) following the manufacturer's protocol. PKA activity was determined using a kit from Gibco (Grand Island, N.Y.) and the manufacturer's protocol. For the cAMP assay, cells were lysed and sonicated in assay buffer (provided with the kits). Proliferative assays were performed as described above.
Further purification was achieved by reverse phase chromatography. 3 ml of above solution was applied on C18 Sep-Pak cartridge (Waters) equilibrated with water+0.1% TFA. The column was washed with H2O-TFA until absorbance at 280nm reached baseline. Bound material was eluted from the column by stepwise elution with H2O-acetonitrile-TFA mixtures. There were three peaks on elution curve at 20%, 40% and 70% acetonitrile. The effluent from the above step was rechromatographed again on C18 cartridge and yielded additional quantities of the three products. […] Fraction 2 was added in various PBS dilutions to lymphocytes from HIV seropositive subjects. cAMP was then measured on lysates of these cells after 1 hour.

[2] = test system: PBMC from an HIV seropositive subject; assay: Proliferative response to PHA of PBMC from HIV seropositive subjects; type: cell-based, human
Experimental: Proliferative assays were performed as previously described (see, for example, Hofmann, B., et al., Cell Immunol (1989) 121:336-48. Briefly, one microcurie ^3H-thymidine was added to cultures 72 hours after stimulation, and after further 24 hours, all cultures were harvested on glass fiber filters with an automatic harvesting machine (Skatron, Lierbyen, Norway), and the incorporated radioactivity was measured in a liquid scintillation counter (Beckman LS 1800) after an addition of 1.5 ml scintillation fluid.

Raji cells = assay: Cytotoxic T-cell 51Cr-release assay against Raji cells; type: cell-based, human
Experimental: Cytotoxic T-cells from HIV seropositive subjects “regained” their normal ability to lyse allogenic tumor cell line in the presence of ddAdo as shown in FIG. 10B. In this experiment, ddAdo was added either during the six days of generation/priming (middle column of FIG. 10B) or during the three hour cytotoxic assay (right column of FIG. 10B). The cytotoxic assay used was a standard assay. Briefly, 10^6 PBMC were primed and irradiated (3000 Rad) Raji B-lymphoblastoid cells (8:1 ratio) for six days and added to triplicates of ^51Cr-labeled target Raji cells in effector target ratios from 6.25 to 50. ^51Cr released to the supernatant was measured in a gamma counter. Percentage of specific ^51Cr-release was calculated as 100×(released by PBMC−spontaneous release)/(maximum release with Triton X−spontaneous release). ddAdo was added in concentrations of 10 or 100 ng/ml either during priming or lysis.

T lymphocyte = T lymphocyte proliferative response to HIV-specific protein (p24) in HIV seropositive subjects; type: cell-based, human; conditions: FIG. 11
Description: FIG. 11 is a graph showing T lymphocyte proliferative response in HIV seropositive subjects to a specific recall antigen (Candida albicans) and to an HIV-specific protein (p24) before and after ddAdo treatment.

[3] = test system: PBMC from HIV seropositive subjects; assay: Proliferative response to Candida albicans, PBMC from HIV seropositive subjects; type: cell-based, human
Experimental: Proliferative assays were done in triplicates of 50,000 PBMC in 200 μL RPMI with 10% FCS and 8 μg/ml of Candida albicans. ddAdo was added in two-fold dilutions; tritiated thymidine was added at day 5 and cells were harvested at day 6. Concentrations of ddAdo from 12.5 to 50 ng/ml gave the highest responses. […] Ratio 1:12 gave 48% (±12) without and 76% (±9) with ddAdo during priming. Ratio 1:25 gave 61% (±15) without and 77% (±9) with ddAdo.

[4] = Personal Communication; cited from earlier work

For `C[C@H]1O[C@@H](n2cnc3c(N)ncnc32)C[C@@H]1O` [ddAdo, 2′,5′ dideoxyadenosine], the cAMP levels ([1]; 10 ng/ml for 10 min, decreased from 5.3) was 3.6 pmol/10^6 PBMC, the “Time for intracellular cAMP level to decrease to normal levels” value ([1]; added for 10 minutes followed by washing, remained at this level after 20 hours, FIG. 9A) was at most 4 h and the “Proliferative response to PHA” value [2] was “improved”. For the same compound, the “Ability of cytotoxic T-cells from HIV seropositive subjects to lyse allogenic tumor cell line” value (Raji cells; 10 or 100 ng/ml during priming or lysis, FIG. 10B) was “regained”, the “Effect on target lysis by HIV seronegative cells” value (Raji cells; HIV seronegative subjects) was “minimal effect” and the “Target lysis (specific ^51Cr-release)” value (Raji cells; Ratio 1:12, ddAdo during priming, without 48% (±12)) was 76%. For the same compound, the “Target lysis (specific ^51Cr-release)” value (Raji cells; Ratio 1:25, without 61% (±15)) was 77%, the “T lymphocyte responses directed against HIV” value (T lymphocyte) was “restores/increases” and the “Responses to Candida albicans (mean and SEM)” value ([3]; 14 HIV seropositive subjects, increased from 2900 (±1300)) was 6100 (±1600) cpm. For the same compound, the “Responses to Candida albicans” value ([3]; some HIV seropositive subjects, increased from less than 1000 cpm, FIG. 10A) was “about 10,000 cpm” and the Antiviral effect [4] was “no antiviral effect”.

Source: US6429208B1, “Methods and compositions for restoring impaired cellular immune function” (Regents of the University of California, priority 1992, dated 2002)
